Experimental data as given in patent US11000033B2, “Ketone or oxime compound, and herbicide” (NISSAN CHEMICAL CORPORATION, priority 2014, dated 2021).

Experiments:
Format in all cases: in vivo
rice plant = assay: Test Example 5: effect on crop by foliage application, plastic box (symbol b); conditions: 320 g/ha, 3 weeks after application
Summary of the method: (§1)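 Crop seed is sown alongside grass and broadleaf weed species in spots in sterilized diluvial soil, then covered to a depth of about 1.5 cm. Plants grow in a greenhouse kept at 25° C. to 30° C.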

Stellaria media = assay: Test Example 5: herbicidal effect by foliage application, plastic box (symbol P); conditions: 320 g/ha, 3 weeks after application
Summary of the method: (§2)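 Post-emergence spray; diluvial soil (sterilized), ~1.5 cm seed cover; greenhouse 25–30° C; 14-day-old plants; water-diluted emulsion at predetermined dose; visual score at 3 wk post-treatment.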

Cyperus difformis = assay: Test Example 3: herbicidal effect by foliage application, Wagner pot (symbol E); conditions: application herbicide amount 320 g/ha
Summary of the method: (§3)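 Alluvial soil was flooded to a depth of 0.1–0.5 cm, seeded with the weeds and rice, and kept in a greenhouse at 25–30 °C. After 14 days of growth, the foliage received a small-sprayer application of emulsion diluted to the intended rate; injury was rated at 3 weeks.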

Apera spica-venti [1] = assay: Test Example 4: herbicidal effect by soil treatment (symbol L); conditions: for L (Apera spica-venti) herbicidal effect grade: application herbicide amount 320 g/ha
Summary of the method: (§4)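 Seeds were sown in sterilized diluvial soil, covered with about 1.5 cm of soil, and the soil surface was sprayed with a water-diluted emulsion of the compound at a predetermined rate. Plants grew in a greenhouse at 25° C. to 30° C.; effects were scored visually 3 weeks after application.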

[2] = tested on: Echinochloa crus-galli var. crus-galli; assay: Test Example 3: herbicidal effect by foliage application, Wagner pot (symbol H); conditions: application herbicide amount 320 g/ha
Summary of the method: as §3

[3] = tested on: Echinochloa crus-galli var. crus-galli; assay: Test Example 4: herbicidal effect by soil treatment (symbol H); conditions: for H (Echinochloa crus-galli var. crus-galli) herbicidal effect grade: application herbicide amount 320 g/ha
Summary of the method: as §4

Amaranthus retroflexus = assay: Test Example 4: herbicidal effect by soil treatment (symbol N); conditions: for N (Amaranthus retroflexus) herbicidal effect grade: application herbicide amount 320 g/ha
Summary of the method: as §4

[4] = tested on: Echinochloa oryzacola Vasing.; assay: Test Example 1: herbicidal activity, application before weed generation in submerged conditions (symbol A); conditions: application herbicide amount 320 g/ha
Summary of the method: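 Mixed weed seeds sown in alluvial soil under 4 cm of water, with rice seedlings at the 2.5-leaf stage added. Same-day treatment: emulsion diluted to a set herbicide amount onto the water. Three weeks at 25–30 °C, then graded on a six-step scale.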

Apera spica-venti [5] = assay: Test Example 5: herbicidal effect by foliage application, plastic box (symbol L); conditions: 320 g/ha, 3 weeks after application
Summary of the method: as §2

[6] = tested on: Echinochloa oryzacola Vasing.; assay: Test Example 2: herbicidal activity, application during weed generation in submerged conditions (symbol A); conditions: Table 23; application herbicide amount 320 g/ha; grade 0-5 by criteria of Test Example 1
Summary of the method: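 Weeds emerging under flooded conditions were treated with compound formulated as an emulsion and diluted with water to the intended herbicide amount, poured onto the surface of 4 cm standing water. Seeds had been co-sown in alluvial soil; plants grew at 25° C. to 30° C. and were assessed after 3 weeks.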

Setaria viridis = assay: Test Example 5: herbicidal effect by foliage application, plastic box (symbol G); conditions: 320 g/ha, 3 weeks after application
Summary of the method: as §2

beet = assay: Test Example 5: effect on crop by foliage application, plastic box (symbol f); conditions: 320 g/ha, 3 weeks after application
Summary of the method: as §1

soybean = assay: Test Example 5: effect on crop by foliage application, plastic box (symbol d); conditions: 320 g/ha, 3 weeks after application
Summary of the method: as §1

CON=C(C)CC1CC(OC(=O)COc2ccc(OC)cc2)=C(c2c(C)cc(C)cc2C)C1=O (stereo not drawn) [1-069] was tested, and the “b: directly sowed rice plant, effect on crop grade” value (rice plant) was 5 (Herbicidal ratio of 90% or more (almost completely withered)), the “P: Stellaria media, herbicidal effect grade” value (Stellaria media) was 3 (Herbicidal ratio of 40% or higher and lower than 70%) and the “herbicidal effect on E, grade 0-5” value (Cyperus difformis) was 5 (Herbicidal ratio of 90% or more (almost completely withered)). For the same compound, the “L (Apera spica-venti) herbicidal effect grade” value (Apera spica-venti [1]) was 5 (Herbicidal ratio of 90% or more (almost completely withered)), the “herbicidal effect on H (Echinochloa crus-galli var. crus-galli), grade 0-5” value (“herbicidal effect on H” below) [2] was 5 (Herbicidal ratio of 90% or more (almost completely withered)) and the “H (Echinochloa crus-galli var. crus-galli) herbicidal effect grade” value [3] was 5 (Herbicidal ratio of 90% or more (almost completely withered)). For the same compound, the “N (Amaranthus retroflexus) herbicidal effect grade” value (Amaranthus retroflexus) was 4 (Herbicidal ratio of 70% or higher and lower than 90%), the “Herbicidal effect grade, A: Echinochloa oryzacola Vasing.” value [4] was 5 (Herbicidal ratio of 90% or more (almost completely withered)) and the “L: Apera spica-venti, herbicidal effect grade” value (Apera spica-venti [5]) was 5 (Herbicidal ratio of 90% or more (almost completely withered)). For the same compound, the “Herbicidal effect grade, A: Echinochloa oryzacola Vasing.” value [6] was 4 (Herbicidal ratio of 70% or higher and lower than 90%), the “G: Setaria viridis, herbicidal effect grade” value (Setaria viridis) was 5 (Herbicidal ratio of 90% or more (almost completely withered)) and the “f: beet, effect on crop grade” value (beet) was 1 (Herbicidal ratio of 5% or higher and lower than 20%). The “d: soybean, effect on crop grade” value (soybean) was 4 (Herbicidal ratio of 70% or higher and lower than 90%).
CON=C(C)C(c1ccc(F)cc1)C1CC(O)=C(c2c(C)cc(C)cc2C)C1=O (stereo not drawn) [1-049] was tested, and the “b: directly sowed rice plant, effect on crop grade” value (rice plant) was 0 (Herbicidal ratio of 5% or lower (almost no effect)), the “P: Stellaria media, herbicidal effect grade” value (Stellaria media) was 0 (Herbicidal ratio of 5% or lower (almost no effect)) and the “herbicidal effect on E, grade 0-5” value (Cyperus difformis) was 0 (Herbicidal ratio of 5% or lower (almost no effect)). The “L (Apera spica-venti) herbicidal effect grade” value (Apera spica-venti [1]) was 0 (Herbicidal ratio of 5% or lower (almost no effect)), the “herbicidal effect on H” value [2] was 0 (Herbicidal ratio of 5% or lower (almost no effect)) and the “H (Echinochloa crus-galli var. crus-galli) herbicidal effect grade” value [3] was 0 (Herbicidal ratio of 5% or lower (almost no effect)). For the same compound, the “N (Amaranthus retroflexus) herbicidal effect grade” value (Amaranthus retroflexus) was 0 (Herbicidal ratio of 5% or lower (almost no effect)), the “Herbicidal effect grade, A: Echinochloa oryzacola Vasing.” value [4] was 0 (Herbicidal ratio of 5% or lower (almost no effect)) and the “L: Apera spica-venti, herbicidal effect grade” value (Apera spica-venti [5]) was 0 (Herbicidal ratio of 5% or lower (almost no effect)). The “Herbicidal effect grade, A: Echinochloa oryzacola Vasing.” value [6] was 0 (Herbicidal ratio of 5% or lower (almost no effect)), the “G: Setaria viridis, herbicidal effect grade” value (Setaria viridis) was 0 (Herbicidal ratio of 5% or lower (almost no effect)) and the “f: beet, effect on crop grade” value (beet) was 0 (Herbicidal ratio of 5% or lower (almost no effect)). For the same compound, the “d: soybean, effect on crop grade” value (soybean) was 0 (Herbicidal ratio of 5% or lower (almost no effect)).
CON=C(C)CC1CC(OC(=O)C(C)(C)Oc2cccc(Cl)c2)=C(c2c(C)cc(C)cc2C)C1=O (stereo not drawn) [1-065] was tested, and the “b: directly sowed rice plant, effect on crop grade” value (rice plant) was 5 (Herbicidal ratio of 90% or more (almost completely withered)), the “P: Stellaria media, herbicidal effect grade” value (Stellaria media) was 0 (Herbicidal ratio of 5% or lower (almost no effect)) and the “herbicidal effect on E, grade 0-5” value (Cyperus difformis) was 5 (Herbicidal ratio of 90% or more (almost completely withered)). For the same compound, the “L (Apera spica-venti) herbicidal effect grade” value (Apera spica-venti [1]) was 5 (Herbicidal ratio of 90% or more (almost completely withered)), the “herbicidal effect on H” value [2] was 5 (Herbicidal ratio of 90% or more (almost completely withered)) and the “H (Echinochloa crus-galli var. crus-galli) herbicidal effect grade” value [3] was 5 (Herbicidal ratio of 90% or more (almost completely withered)). The “N (Amaranthus retroflexus) herbicidal effect grade” value (Amaranthus retroflexus) was 5 (Herbicidal ratio of 90% or more (almost completely withered)), the “Herbicidal effect grade, A: Echinochloa oryzacola Vasing.” value [4] was 5 (Herbicidal ratio of 90% or more (almost completely withered)) and the “L: Apera spica-venti, herbicidal effect grade” value (Apera spica-venti [5]) was 5 (Herbicidal ratio of 90% or more (almost completely withered)). The “Herbicidal effect grade, A: Echinochloa oryzacola Vasing.” value [6] was 4 (Herbicidal ratio of 70% or higher and lower than 90%), the “G: Setaria viridis, herbicidal effect grade” value (Setaria viridis) was 5 (Herbicidal ratio of 90% or more (almost completely withered)) and the “f: beet, effect on crop grade” value (beet) was 0 (Herbicidal ratio of 5% or lower (almost no effect)). The “d: soybean, effect on crop grade” value (soybean) was 4 (Herbicidal ratio of 70% or higher and lower than 90%).
For CC(CC1CC(O)=C(c2c(C)cc(C)cc2C)C1=O)=NOCC(C)O (stereo not drawn) [1-027], the “b: directly sowed rice plant, effect on crop grade” value (rice plant) was 5 (Herbicidal ratio of 90% or more (almost completely withered)), the “P: Stellaria media, herbicidal effect grade” value (Stellaria media) was 1 (Herbicidal ratio of 5% or higher and lower than 20%) and the “herbicidal effect on E, grade 0-5” value (Cyperus difformis) was 5 (Herbicidal ratio of 90% or more (almost completely withered)). For the same compound, the “L (Apera spica-venti) herbicidal effect grade” value (Apera spica-venti [1]) was 5 (Herbicidal ratio of 90% or more (almost completely withered)), the “herbicidal effect on H” value [2] was 5 (Herbicidal ratio of 90% or more (almost completely withered)) and the “H (Echinochloa crus-galli var. crus-galli) herbicidal effect grade” value [3] was 5 (Herbicidal ratio of 90% or more (almost completely withered)). For the same compound, the “N (Amaranthus retroflexus) herbicidal effect grade” value (Amaranthus retroflexus) was 0 (Herbicidal ratio of 5% or lower (almost no effect)), the “Herbicidal effect grade, A: Echinochloa oryzacola Vasing.” value [4] was 4 (Herbicidal ratio of 70% or higher and lower than 90%) and the “L: Apera spica-venti, herbicidal effect grade” value (Apera spica-venti [5]) was 5 (Herbicidal ratio of 90% or more (almost completely withered)). The “Herbicidal effect grade, A: Echinochloa oryzacola Vasing.” value [6] was 4 (Herbicidal ratio of 70% or higher and lower than 90%), the “G: Setaria viridis, herbicidal effect grade” value (Setaria viridis) was 5 (Herbicidal ratio of 90% or more (almost completely withered)) and the “f: beet, effect on crop grade” value (beet) was 0 (Herbicidal ratio of 5% or lower (almost no effect)). For the same compound, the “d: soybean, effect on crop grade” value (soybean) was 3 (Herbicidal ratio of 40% or higher and lower than 70%).
In the case of CON=C(C)CC1CC(OC(=O)C2=C(Br)CCC2)=C(c2c(C)cc(C)cc2C)C1=O (stereo not drawn) [1-089], the “b: directly sowed rice plant, effect on crop (criteria 0-5)” value (rice plant) is reported as 5 (Herbicidal ratio of 90% or more (almost completely withered)), the “P: Stellaria media, herbicidal effect (criteria 0-5)” value (Stellaria media) is reported as 0 (Herbicidal ratio of 5% or lower (almost no effect)) and the “herbicidal effect on E, grade 0-5” value (Cyperus difformis) is reported as 5 (Herbicidal ratio of 90% or more (almost completely withered)). For the same compound, the “L: Apera spica-venti, herbicidal effect grade” value (Apera spica-venti [1]; 320 g/ha) was 5 (Herbicidal ratio of 90% or more (almost completely withered)), the “herbicidal effect on H” value [2] was 5 (Herbicidal ratio of 90% or more (almost completely withered)) and the “H: Echinochloa crus-galli var. crus-galli, herbicidal effect grade” value ([3]; 320 g/ha) was 5 (Herbicidal ratio of 90% or more (almost completely withered)). For the same compound, the “N: Amaranthus retroflexus, herbicidal effect grade” value (Amaranthus retroflexus; 320 g/ha) was 3 (Herbicidal ratio of 40% or higher and lower than 70%), the “Herbicidal effect grade, A: Echinochloa oryzacola Vasing.” value [4] was 5 (Herbicidal ratio of 90% or more (almost completely withered)) and the “L: Apera spica-venti, herbicidal effect (criteria 0-5)” value (Apera spica-venti [5]) was 5 (Herbicidal ratio of 90% or more (almost completely withered)). The “Herbicidal effect grade, A: Echinochloa oryzacola Vasing.” value [6] was 5 (Herbicidal ratio of 90% or more (almost completely withered)), the “G: Setaria viridis, herbicidal effect (criteria 0-5)” value (Setaria viridis) was 5 (Herbicidal ratio of 90% or more (almost completely withered)) and the “f: beet, effect on crop (criteria 0-5)” value (beet) was 0 (Herbicidal ratio of 5% or lower (almost no effect)). The “d: soybean, effect on crop (criteria 0-5)” value (soybean) was 2 (Herbicidal ratio of 20% or higher and lower than 40%).
For CON=C(C)CC1CC(OC(=O)COc2cccc(C#N)c2)=C(c2c(C)cc(C)cc2C)C1=O (stereo not drawn) [1-074], the “b: directly sowed rice plant, effect on crop (criteria 0-5)” value (rice plant) was 5 (Herbicidal ratio of 90% or more (almost completely withered)), the “P: Stellaria media, herbicidal effect (criteria 0-5)” value (Stellaria media) was 1 (Herbicidal ratio of 5% or higher and lower than 20%) and the “herbicidal effect on E, grade 0-5” value (Cyperus difformis) was 5 (Herbicidal ratio of 90% or more (almost completely withered)). For the same compound, the “L (Apera spica-venti) herbicidal effect grade” value (Apera spica-venti [1]) was 5 (Herbicidal ratio of 90% or more (almost completely withered)), the “herbicidal effect on H” value [2] was 5 (Herbicidal ratio of 90% or more (almost completely withered)) and the “H (Echinochloa crus-galli var. crus-galli) herbicidal effect grade” value [3] was 5 (Herbicidal ratio of 90% or more (almost completely withered)). The “N (Amaranthus retroflexus) herbicidal effect grade” value (Amaranthus retroflexus) was 5 (Herbicidal ratio of 90% or more (almost completely withered)), the “Herbicidal effect grade, A: Echinochloa oryzacola Vasing.” value [4] was 5 (Herbicidal ratio of 90% or more (almost completely withered)) and the “L: Apera spica-venti, herbicidal effect (criteria 0-5)” value (Apera spica-venti [5]) was 5 (Herbicidal ratio of 90% or more (almost completely withered)). For the same compound, the “Herbicidal effect grade, A: Echinochloa oryzacola Vasing.” value [6] was 5 (Herbicidal ratio of 90% or more (almost completely withered)), the “G: Setaria viridis, herbicidal effect (criteria 0-5)” value (Setaria viridis) was 5 (Herbicidal ratio of 90% or more (almost completely withered)) and the “f: beet, effect on crop (criteria 0-5)” value (beet) was 0 (Herbicidal ratio of 5% or lower (almost no effect)). The “d: soybean, effect on crop (criteria 0-5)” value (soybean) was 4 (Herbicidal ratio of 70% or higher and lower than 90%).
